Measurements from patent US8334293B2, “P70 S6 kinase inhibitor and EGFR inhibitor combination therapy” (Eli Lilly and Company, priority 2008, dated 2012).
Counter-ions that a name gives are not always drawn.

Test system: A549 human non-small-cell lung carcinoma cells
Experiment: In vivo efficacy, A549 xenograft tumor volume
Set-up: species or system mice
Conditions: for pairwise comparison of log tumor volume AUC with the combination group / statistical difference (p) of log tumor volume AUC from the vehicle: 2-way ANOVA; for Tumor volume Mean: oral once daily, 2.5 mg/kg p70 S6 kinase inhibitor and/or 20 mg/kg erlotinib hydrochloride, in mm^3 (unit assumed); for Signif. (difference relative to vehicle group): tumor volume, repeated measures ANOVA; for log tumor volume AUC: tumor volume vs. time, trapezoid rule, vehicle 3.91
Method: A549 human non-small-cell lung carcinoma cells (5×10^6) are subcutaneously implanted into the flank of female C.B-17 (Fox Chase SCID) Model #CB17SC-M mice in 0.2 mL of matrigel. Approximately 1 week post-implantation when the tumor size is approximately 100 mg, mice are randomized into groups of 10 and dosed orally once daily at 2.5 mg/kg 4-[4-[4-(4-fluoro-3-trifluoromethyl-phenyl)-1-methyl-1H-imidazol-2-yl]-piperidin-1-yl]-1H-pyrazolo[3,4-d]pyrimidine (the p70 S6 kinase inhibitor; formulated in 35% PEG300/10% HPBCD/10% PS80 in H2O; concentration of inhibitor is 0.31 mg/mL) or 20 mg/kg erlotinib hydrochloride (formulated in NaCMC Tween 80; concentration of erlotinib hydrochloride is 2.5 mg/mL) or in combination (2.5 mg/kg of the p70 S6 kinase inhibitor and 20 mg/kg of erlotinib hydrochloride). The vehicle group is given the 2 vehicles (NaCMC Tween 80 and 35% PEG300/10% HPBCD/10% PS80 in H2O) in combination (0.1 mL of each). Treatment is continued for 38 days. Tumor volumes are measured using standard technique twice weekly and reported. Tumor size and body weight are recorded and analyzed bi-weekly. Tumor volume is estimated by using the formula: v=l×w^2×0.536 where l=larger of measured diameter and w=smaller of perpendicular diameter. The analysis uses SAS software version 8.2 (SAS Institutes Inc, Cary, N.C.) to analyze the log tumor volume data using a repeated measures ANOVA model with a spatial power covariance structure. For each time point taken, treatment groups are compared to the vehicle control group. Tumor volumes are given as means±standard errors for each treatment group determined from a repeated measures ANOVA on each group. (SAS for Mixed Models, 2nd Ed., Littell et al., 2006, SAS Institutes Inc, Cary, N.C.).
The tumor volume vs. time data for each animal is used to calculate an area under the curve (AUC) using the trapezoid rule. These AUCs are analyzed by 2-way ANOVA using a log transformation to equalize variance across groups. The two factors are the dose of 4-[4-[4-(4-fluoro-3-trifluoromethyl-phenyl)-1-methyl-1H-imidazol-2-yl]-piperidin-1-yl]-1H-pyrazolo[3,4-d]pyrimidine and the dose of erlotinib hydrochloride. The interaction effect between the factors is used to test for departure from additivity. (An Introduction to Statistical Methods and Data Analysis, R. Lyman Ott, 1993, Duxbury Press, Belmont, Calif.)
The results of this study are shown in the table below. n (the number of mice) is 9 for all the data, except for the data from day 17 onwards in the vehicle group and the data from day 38 onwards in the erlotinib hydrochloride group when it is 8. The data in the column headed Signif. indicates whether the difference relative to the vehicle group is statistically significant: NS=Not Significant (p>0.05); *=0.01<p≦0.05; **=0.001<p≦0.01; ***=p≦0.001.

| Structure (SMILES) | pairwise comparison of log tumor volume AUC with the combination group | statistical difference (p) of log tumor volume AUC from the vehicle | Tumor volume Mean (Day 7) | Signif. (difference relative to vehicle group) (Day 7) | Tumor volume Mean (Day 9) | Signif. (difference relative to vehicle group) (Day 9) | Tumor volume Mean (Day 14) | Signif. (difference relative to vehicle group) (Day 14) | Tumor volume Mean (Day 17) | Signif. (difference relative to vehicle group) (Day 17) | Tumor volume Mean (Day 21) | Signif. (difference relative to vehicle group) (Day 21) | Tumor volume Mean (Day 24) | Signif. (difference relative to vehicle group) (Day 24) | Tumor volume Mean (Day 28) | Signif. (difference relative to vehicle group) (Day 28) | Tumor volume Mean (Day 31) | Signif. (difference relative to vehicle group) (Day 31) | Tumor volume Mean (Day 35) | Signif. (difference relative to vehicle group) (Day 35) | further results |
| --- | --- | --- | --- | --- | --- | --- | --- | --- | --- | --- | --- | --- | --- | --- | --- | --- | --- | --- | --- | --- | --- |
| C#Cc1cccc(Nc2ncnc3cc(OCCOC)c(OCCOC)cc23)c1 [Erlotinib Hydrochloride, N-(3-ethynylphenyl)-6,7-bis-(2-methoxyethoxy)-4-quinazolinamine] | significantly different from the combination group | not significantly different from the vehicle | 39.5 | NS (NS=Not Significant (p>0.05)) | 51.5 | NS (NS=Not Significant (p>0.05)) | 61.8 | NS (NS=Not Significant (p>0.05)) | 74.8 | NS (NS=Not Significant (p>0.05)) | 91.1 | NS (NS=Not Significant (p>0.05)) | 101.6 | NS (NS=Not Significant (p>0.05)) | 139.9 | NS (NS=Not Significant (p>0.05)) | 141.8 | ** (**=0.001<p≦0.01) | 196.7 | ** (**=0.001<p≦0.01) | Tumor volume Mean (Day 38): 259.4; Signif. (difference relative to vehicle group) (Day 38): * (*=0.01<p≦0.05); Tumor volume Mean (Day 42): 260.1; Signif. (difference relative to vehicle group) (Day 42): ** (**=0.001<p≦0.01); Tumor volume Mean (Day 44): 373.8; Signif. (difference relative to vehicle group) (Day 44): * (*=0.01<p≦0.05); log tumor volume AUC: 3.76 |
| Cn1cc(-c2ccc(F)c(C(F)(F)F)c2)nc1C1CCN(c2ncnc3[nH]ncc23)CC1 [p70 S6 Kinase Inhibitor, 4-[4-[4-(4-fluoro-3-trifluoromethyl-phenyl)-1-methyl-1H-imidazol-2-yl]-piperidin-1-yl]-1H-pyrazolo[3,4-d]pyrimidine] | significantly different from the combination group | not significantly different from the vehicle | 33.8 | NS (NS=Not Significant (p>0.05)) | 51.9 | NS (NS=Not Significant (p>0.05)) | 56.2 | NS (NS=Not Significant (p>0.05)) | 75.9 | NS (NS=Not Significant (p>0.05)) | 94.1 | NS (NS=Not Significant (p>0.05)) | 113.5 | NS (NS=Not Significant (p>0.05)) | 196.6 | NS (NS=Not Significant (p>0.05)) | 231.3 | NS (NS=Not Significant (p>0.05)) | 302.4 | NS (NS=Not Significant (p>0.05)) | Tumor volume Mean (Day 38): 353.3; Signif. (difference relative to vehicle group) (Day 38): NS (NS=Not Significant (p>0.05)); Tumor volume Mean (Day 42): 425.5; Signif. (difference relative to vehicle group) (Day 42): NS (NS=Not Significant (p>0.05)); Tumor volume Mean (Day 44): 530.9; Signif. (difference relative to vehicle group) (Day 44): NS (NS=Not Significant (p>0.05)); log tumor volume AUC: 3.85 |
